Results on nine compounds are retold here after patent US8772268B2, “Bisphosphonamidate prodrugs and uses thereof” (The Johns Hopkins University, priority 2010, dated 2014).

By EC50 is commonly meant the concentration that produces a half-maximal response.

“And” between values parts separate entries of the source, which are not always exact repeats. Equal entries are not always repeated. Where two headings read alike, the source gives them in different places. Some results are limits rather than exact numbers.

The test system of test [1] is A549 NSCLC cells. Kind of test: MTS cell proliferation assay, A549. It is filed as cell-based. The note with it: for growth inhibitory effect against A549 cells: concentrations up to 1 mM; for EC50: Homo sapiens, A549 (NSCLC), MTS, table of Example 3; for IC50: A549, MTS, read-out: IC50 (decreased cell proliferation by 50% compared to control). The method, then:
Cell proliferation was determined using the CellTiter 96 Aqueous One Solution Cell Proliferation Assay MTS assay. A549 NSCLC cells were plated at 1.5×10^3 cells per well in flat bottom 96 well plates in 99 μL of media and allowed to adhere overnight. The drugs were serially diluted in 100% DMSO. For each drug treatment group, 1 μL of a 100× stock solution was added to each well for a final DMSO concentration of 1%. Cells were treated for 24, 48 or 72 hours. Cells were incubated with MTS dye (20 μL well^−1) for 40 min to 2 h. Absorbance at 490 nm was determined using a SpectraMax M2 (Molecular Devices) plate reader. The percent cell proliferation was calculated by converting the experimental absorbance to percentage of control, which was then plotted vs. drug concentration. The IC50 values were determined using a non-linear dose-response analysis in GraphPad Prism version 4.0. The IC50 is defined as the concentration of drug needed to cause a 50% decrease in proliferation compared to vehicle control. […]
On the technique in general: Tetrazolium dyes change colour on reduction, which living cells bring about.

The test system of test [2] is A549 NSCLC cells. The test can be described thus: Activity of other esters against NSCLC (FIG. 13A-D). The note with it: Homo sapiens. It is filed as cell-based. The method, then: Cells were dosed as described above. […] The results shown in FIG. 13 are from a single experiment only.
Results are shown in FIG. 13 and in the table below

The subject of the next test is P. falciparum (NF54). The test can be described thus: Antimalarial [3H]-hypoxanthine incorporation assay. The class given is cell-based, Plasmodium falciparum. The method, then:
Plasmodium falciparum culture. NF54 P. falciparum parasites were maintained in O+ positive erythrocytes (obtained weekly from a rotating pool of screened healthy donors) in complete medium containing RPMI (Sigma), 25 mM N-2-hydroxyethylpiperazine-N′-2-ethanesulfonic acid (HEPES; Sigma), 27 mM sodium bicarbonate (Sigma) and 10% heat-inactivated male O+ serum in non-vented flasks. Hematocrit was maintained at 2.4%. Flasks were gassed with a mixture of 3% oxygen, 4% carbon dioxide, 93% nitrogen. Parasitemia was maintained at 0.1-5% by changing medium and erythrocytes two to three times a week.
Antimalarial activity was measured using a [^3H]-hypoxanthine incorporation assay as described previously (Desjardins et al., Antimicrob. Agents Chemother., vol. 16, p. 710, 1979; Milhous et al., Antimicrob. Agents Chemother., vol. 27, np. 525, 1985). […] For surveys, each concentration was assayed in triplicate while in expansions, each concentration was assayed in quadruplicate. To each well, 0.64 μCi of [^3H]-hypoxanthine (10-30 Ci/mmol; Perkin Elmer) was added and the plate was incubated for an additional 20 to 24 h. Samples from each well were harvested on filter paper and tritium counts were measured on the Beckmann Coulter LS6500 scintillation counter. […] Values considered as outliers according to Chauvenet's criterion were discarded and dropped from analysis. One survey and at least one expansion was performed for each compound.

Test [3] has as its system MDA-MB-453 (breast) cancer cell line. Kind of test: MTS cell proliferation assay, MDA-MB-453. The class given is cell-based. As to conditions: Homo sapiens. The method, then:
(§1) Cell proliferation was determined using the CellTiter 96 Aqueous One Solution Cell Proliferation Assay MTS assay. A549 NSCLC cells were plated at 1.5×10^3 cells per well in flat bottom 96 well plates in 99 μL of media and allowed to adhere overnight. The drugs were serially diluted in 100% DMSO. For each drug treatment group, 1 μL of a 100× stock solution was added to each well for a final DMSO concentration of 1%. Cells were treated for 24, 48 or 72 hours. Cells were incubated with MTS dye (20 μL well^−1) for 40 min to 2 h. Absorbance at 490 nm was determined using a SpectraMax M2 (Molecular Devices) plate reader. The percent cell proliferation was calculated by converting the experimental absorbance to percentage of control, which was then plotted vs. drug concentration. The IC50 values were determined using a non-linear dose-response analysis in GraphPad Prism version 4.0. The IC50 is defined as the concentration of drug needed to cause a 50% decrease in proliferation compared to vehicle control.
(§2) The activity of Clodronate prodrug (14) was tested against other cell lines, include prostate (PIP3) and breast (MDA-MB-453) cancer cells lines. Cell proliferation was determined using the CellTiter 96 Aqueous One Solution Cell Proliferation Assay MTS assay as discussed above. Results are shown in FIG. 22 and in the table below.

Test [4] concerns breast and ovarian cancers. The note with it: cited from earlier work.
Another test has as its system L1210. The test can be described thus: Cytotoxicity, L1210. The class given is cell-based.
The next test concerns lung cancer cell lines. The note with it: cited from earlier work.
For test [5], the system named is PIP3 (prostate) cancer cell line. The test can be described thus: MTS cell proliferation assay, PIP3. It is filed as cell-based. The method, then:
as §1, §2

Test [6] deals with A549 NSCLC cells. The test can be described thus: Trypan blue cell count assay, A549. As to conditions: for EC50: read-out: EC50 (decreased cell number by 50% compared to control). The method, then: A549 NSCLC cells were plated at 1.7×10^4 cells per well in flat bottom 12-well plates. Cells were dosed as described above. At 24, 48 or 72 hours following drug treatment, the media was collected, and the cells were washed with 200 μL PBS. Each well was trypsinized with 200 μL trypsin for 3-5 min. The trypsin reaction was quenched with an equal volume of media. All supernatants and washes were combined and spun at 1,500 rpm for 5 min. Supernatant was decanted, and the cells were resuspended in 200 μL media. The cells were diluted 1:1 in 0.04% trypan blue and counted using a cytometer. The absolute number of cells was determined at each drug concentration. The cell number for each concentration was converted to percent of control for each time point, and plotted using GraphPad Prism 4.0. The EC50 was calculated as the concentration of drug that caused a 50% decrease in number of cells compared to control.
The number of viable cells at each dose was determined at 0, 24, 48 and 72 hours following drug treatment and plotted as a percent of control (FIG. 6A).

The test system of test [7] is several cancer cell lines. The note with it: cited from earlier work.
Another test deals with A549. The test can be described thus: Cyclized zoledronate intermediate vs zoledronic acid, normoxia/hypoxia, A549. As to conditions: Homo sapiens. The class given is cell-based.
Another test deals with H358. Kind of test: Cyclized zoledronate intermediate vs zoledronic acid, normoxia/hypoxia, H358. It is filed as cell-based. The note with it: Homo sapiens.
Setting [8] is: Plasmodium falciparum, P. falciparum (NF54), read-out: IC50.
[9] abbreviates: A549, 24 h, single experiment, read-out: IC50 24 h.
The mark [10] stands for this setting: A549, 48 h, single experiment, read-out: IC50 48 h.
Setting [11] is: A549, 72 h, single experiment, read-out: IC50 72 h.

As for `O=P(O)(O)CP(=O)(O)O` [Bisphosphonate, reference compound], the “growth inhibitory effect against A549 cells” value in the test with A549 NSCLC cells [1] is on record as “minimal activity”.

For the compound `CN(CCCCCl)P(=O)(OCc1ccccc1)C(Cl)(Cl)P(=O)(OCc1ccccc1)N(C)CCCCCl` (stereo not drawn) [Chlorobenzyl analog], the IC50 amounted to 18.9 µM in the test with A549 NSCLC cells [2] (A549, 24 h, read-out: IC50 24 h); 11.9 µM with A549 NSCLC cells [2] (A549, 48 h, read-out: IC50 48 h); 11.6 µM with A549 NSCLC cells [2] (A549, 72 h, read-out: IC50 72 h); 5.9 µM with P. falciparum (NF54) (Plasmodium falciparum, NF54).

Take `O=P(O)(O)C(Cl)(Cl)P(=O)(O)O` [Clodronate, clodronate, reference compound]: the EC50 (in the test on A549 NSCLC cells [1]; in test [3]; in [5]) was over 1000 µM each time. Also, the “growth inhibitory effect against A549 cells” value with A549 NSCLC cells [1] was “minimal activity”; with A549 NSCLC cells [1] (listed as clodronate) it was “does not exhibit a detectable growth inhibitory effect”. Also, in [4], the growth inhibition entry is recorded as “high micromolar or low millimolar range”. In addition, the results for the IC50 with P. falciparum (NF54) (setting [8]) and with L1210 (Mus musculus) were 750 µM and 830 µM, respectively. The “activity against lung cancer cell lines” value in the test with lung cancer cell lines is on record as “minimal activity”.

On to `CN(CCCCCl)P(=O)(CP(=O)(OCc1ccccc1)N(C)CCCCCl)OCc1ccccc1` (stereo not drawn) [Deschlorobenzyl Analog], for which the IC50 was found to be 21.6 µM with A549 NSCLC cells [2] (setting [9]), 12.8 µM with A549 NSCLC cells [2] (setting [10]) and 7.8 µM in the test with A549 NSCLC cells [2] (setting [11]).

Regarding `CCN(CC)P(=O)(OCc1ccc([N+](=O)[O-])cc1)C(Cl)(Cl)P(=O)(OCc1ccc([N+](=O)[O-])cc1)N(CC)CC` (stereo not drawn) [Diethylamine Analog], the IC50 in the test on P. falciparum (NF54) (setting [8]) came to 3.3 µM.

Consider `COP(=O)(N(C)CCCCCl)C(Cl)(Cl)P(=O)(OC)N(C)CCCCCl` (stereo not drawn) [Methoxy analog], for which the IC50 was found to be 93.4 µM in the test with A549 NSCLC cells [2] (setting [9]), 100 µM in the test on A549 NSCLC cells [2] (setting [10]), 76.3 µM in the test on A549 NSCLC cells [2] (setting [11]) and 22 µM in the test on P. falciparum (NF54) (setting [8]).

Regarding `CN(CCCCCl)P(=O)(OCCc1ccc([N+](=O)[O-])cc1)C(Cl)(Cl)P(=O)(OCCc1ccc([N+](=O)[O-])cc1)N(C)CCCCCl` (stereo not drawn) [Nitrophenethyl analog], the EC50 is about 10 µM in the test on A549 NSCLC cells [6] (Homo sapiens, A549, 24 h); 3.5 µM with A549 NSCLC cells [6] (Homo sapiens, A549, 48 h); 4.2 µM in the test on A549 NSCLC cells [6] (Homo sapiens, A549, 72 h). Besides, the IC50 came to 4.8 µM in the test with A549 NSCLC cells [2] (setting [9]), 3.1 µM in the test with A549 NSCLC cells [2] (setting [10]), 2.1 µM in the test on A549 NSCLC cells [2] (setting [11]) and 0.97 ± 0.21 µM in the test with P. falciparum (NF54) (setting [8]).

As for `O=P(O)(O)C(O)(Cn1ccnc1)P(=O)(O)O` [Zoledronate, zoledronate], the values for the EC50 (in the test with A549 NSCLC cells [1]; in test [3]; in test [5]) were 58 µM, 191 µM and 78 µM, respectively. Besides, the IC50 in test [7] was at least 3 µM; with A549 (A549, 48 h, Hypoxia), 350 µM; in the test on A549 (A549, 48 h, Normoxia), 98 µM; in the test on A549 (A549, 72 h, Hypoxia) it was 205 µM; in the test on A549 (A549, 72 h, Normoxia) it was 45 µM; in the test on H358 (NCI-H358, 48 h, H358, 48 hrs, Hypoxia), 87 µM. The IC50 in the test on H358 (NCI-H358, 48 h, H358, 48 hrs, Normoxia) amounted to 59 µM; with H358 (NCI-H358, 72 h, H358, 72 hrs, Hypoxia) it was 135 µM; in the test with H358 (NCI-H358, 72 h, H358, 72 hrs, Normoxia) it was 15 µM.

For the compound `CN(CCCCCl)P(=O)(CP(=O)(OCc1ccc([N+](=O)[O-])cc1)N(C)CCCCCl)OCc1ccc([N+](=O)[O-])cc1` (stereo not drawn) [compound 13], the IC50 is 17 ± 4 µM in the test on A549 NSCLC cells [1] (24 h); 15.2 µM and 15 µM in the test on A549 NSCLC cells [1] (48 h); 13 ± 1 µM with A549 NSCLC cells [1] (72 h); 5.2 ± 0.21 µM in the test with P. falciparum (NF54) (P. falciparum (NF54), read-out: IC50); 27 µM in the test on L1210. Further, in the test with A549 NSCLC cells [1] (A549 cells), the “decrease in IC50 of 13 compared to 14” value stood at 3 fold. Further, the “EC50 (trypan blue) fold higher than IC50 (MTS)” value in the test on A549 NSCLC cells [6] (A549, 48 h) is reported as about 3.6 fold. The EC50 stood at 24 ± 4 µM with A549 NSCLC cells [6] (A549, trypan blue, 48 h); 25 ± 4 µM in the test on A549 NSCLC cells [6] (A549, trypan blue, 72 h); 24 ± 4 µM with A549 NSCLC cells [6] (A549, trypan blue, 72 h, listed as Bisphosphonate Prodrug).
